The text below walks through data of patent US20240279236A1, “COMPOUNDS AND METHODS OF TREATING TUBERCULOSIS” (Fimbrion Therapeutics, Inc., priority 2021, published 2024).

A value given as a limit tells only on which side of the number the result lay.

As a reminder, the IC50 is the concentration needed to halve the response being measured.

The assay concerns WT Mtb Erdman strain. Nature of the assay: Microplate Alamar Blue Assay (MABA), Mtb growth inhibition. The class given is cell-based, Mycobacterium tuberculosis. As to conditions: Mycobacterium tuberculosis, ERDMAN, 168 h, Middlebrook 7H9 media, 7 days at 37° C. in 5% CO2. Background: Resazurin is reduced to fluorescent resorufin, in cell work by metabolically active cells.

`CCc1nc(NCCCc2ccc(O)cc2)c2cc(C)sc2n1` [Example 70, 4-(3-((2-ethyl-6-methylthieno[2,3-d]pyrimidin-4-yl)amino)propyl) phenol] yielded an IC50 of 230 nM.

For `CSc1nc(NCCCOc2ccc(Cl)cc2)c2cc(C)sc2n1` [Example 71, N-(3-(4-chlorophenoxy)propyl)-6-methyl-2-(methylthio)thieno[2,3-d]pyrimidin-4-amine], half-maximal inhibition (IC50) required 350 nM. For the molecule `Cc1cc2c(NCCCOc3ccc(Cl)cc3)nc(C(F)(F)F)nc2s1` [Example 72, N-(3-(4-chlorophenoxy)propyl)-6-methyl-2-(trifluoromethyl)thieno [2,3-d]pyrimidin-4-amine], the IC50 is 3900 nM. Regarding `Cc1cc2c(NCCCc3ccccc3)nc(C(C)(C)N)nc2s1` [Example 73, 2-(2-aminopropan-2-yl)-6-methyl-N-(3-phenylpropyl)thieno [2,3-d]pyrimidin-4-amine], the IC50 is over 10000 nM. The result for `Cc1cc2c(NCCCc3ccccc3)nc(CS(C)(=O)=O)nc2s1` [Example 74, 6-methyl-2-((methylsulfonyl)methyl)-N-(3-phenylpropyl)thieno [2,3-d]pyrimidin-4-amine] reads over 10000 nM; that for `CSCc1nc(NCCCc2ccccc2)c2cc(C)sc2n1` [Example 75, 6-methyl-2-((methylthio)methyl)-N-(3-phenylpropyl)thieno [2,3-d]pyrimidin-4-amine], 2000 nM; that for `CCSc1nc(NCCCc2ccccc2)c2cc(C)sc2n1` [Example 76, 2-(ethylthio)-6-methyl-N-(3-phenylpropyl)thieno [2,3-d]pyrimidin-4-amine], 92 nM. Molecule `Cc1cc2c(NCCCc3ccccc3)nc(N(C)C)nc2s1` [Example 77, N2,N2,6-trimethyl-N4-(3-phenylpropyl)thieno [2,3-d]pyrimidine-2,4-diamine] came in with an IC50 of 140 nM.

The molecule `Cc1cc2c(NCCCc3ccccc3)nc(-c3ccncn3)nc2s1` [Example 78, 6-methyl-N-(3-phenylpropyl)-2-(pyrimidin-4-yl)thieno[2,3-d]pyrimidin-4-amine] displayed an IC50 of 160 nM. `Cc1cc2c(NCCCc3ccc(OC(F)(F)F)cc3)nc(-c3ccncn3)nc2s1` [Example 79, 6-methyl-2-(pyrimidin-4-yl)-N-(3-(4-(trifluoromethoxy)phenyl)propyl)thieno [2,3-d]pyrimidin-4-amine] came in with an IC50 of 480 nM. In the case of `CCc1nc(NCCCNc2ccccc2)c2cc(C)sc2n1` [Example 80, N1-(2-ethyl-6-methylthieno[2,3-d]pyrimidin-4-yl)-N3-phenylpropane-1,3-diamine], half-maximal inhibition (IC50) was put at 470 nM. `COCc1nc(NCCCc2ccccc2)c2cc(C)sc2n1` [Example 81, 2-(methoxymethyl)-6-methyl-N-(3-phenylpropyl)thieno [2,3-d]pyrimidin-4-amine] showed an IC50 of 3000 nM. The molecule `Cc1cc2c(NCCCc3ccc(OC(F)(F)F)cc3)nc(-c3ccc(F)cc3)nc2s1` [Example 82, 2-(4-fluorophenyl)-6-methyl-N-(3-(4-(trifluoromethoxy)phenyl)propyl)thieno[2,3-d]pyrimidin-4-amine] showed an IC50 of 1100 nM. The molecule `Cc1cc2c(NCCCc3ccc(O)cc3)nc(-c3ccc(F)cc3)nc2s1` [Example 83, 4-(3-((2-(4-fluorophenyl)-6-methylthieno[2,3-d]pyrimidin-4-yl)amino)propyl) phenol] returned a half-inhibitory concentration (IC50) of 2500 nM. Molecule `Fc1ccc(-c2nc(N[C@@H]3C[C@H]3c3ccc(F)c(F)c3)c3cc(C(F)(F)F)sc3n2)cc1` [Example 85, N-((1R,2S)-2-(3,4-difluorophenyl)cyclopropyl)-2-(4-fluorophenyl)-6-(trifluoromethyl)thieno [2,3-d]pyrimidin-4-amine] returned an IC50 of over 6800 nM.

With `CCc1nc(NCCCc2ccccc2)c2cc(CC)sc2n1` [Example 86, 2,6-diethyl-N-(3-phenylpropyl)thieno [2,3-d]pyrimidin-4-amine], the half-maximal inhibitory concentration (IC50) was over 1200 nM.
